The subject of data set [1] is Tetranychus urticae (Two-Spotted Spider Mite). Put plainly: Example B9: Activity against Tetranychus urticae (two-spotted spider mite). The class given is in vivo. As to conditions: foliar, 192 h, read-out: mortality on mixed population (mobile stages). Here is the method:
Example B9: Activity Against Tetranychus urticae (Two-Spotted Spider Mite)
Bean leaf discs on agar in 24-well microtiter plates were sprayed with aqueous test solutions prepared from 10′000 ppm DMSO stock solutions. After drying the leaf discs were infested with a mite population of mixed ages. The samples were assessed for mortality on mixed population (mobile stages) 8 days after infestation.

Data set [2] deals with Diabrotica balteata (Corn Root Worm). The data set is described as follows: Example B1: Activity against Diabrotica balteata (corn root worm), sprayed maize sprouts. The class given is in vivo. As to conditions: 96 h, application rate 200 ppm, L2 larvae on sprayed maize sprouts, 4 days after infestation, read-out: effect in at least one of the two categories (mortality or growth inhibition). Here is the method:
Example B1: Activity Against Diabrotica balteata (Corn Root Worm)
Maize sprouts placed onto an agar layer in 24-well microtiter plates were treated with aqueous test solutions prepared from 10′000 ppm DMSO stock solutions by spraying. After drying, the plates were infested with L2 larvae (6 to 10 per well). The samples were assessed for mortality and growth inhibition in comparison to untreated samples 4 days after infestation.

The test system of data set [3] is Euschistus heros (Neotropical Brown Stink Bug). The data set is described as follows: Example B2: Activity against Euschistus heros (neotropical brown stink bug), sprayed soybean leaves. The class given is in vivo. As to conditions: 120 h, application rate 200 ppm, N2 nymphs on sprayed soybean leaves, 5 days after infestation, read-out: effect in at least one of the two categories (mortality or growth inhibition). Here is the method: Example B2: Activity Against Euschistus heros (Neotropical Brown Stink Bug)
Soybean leaves on agar in 24-well microtiter plates were sprayed with aqueous test solutions prepared from 10′000 ppm DMSO stock solutions. After drying the leaves were infested with N2 nymphs. The samples were assessed for mortality and growth inhibition in comparison to untreated samples 5 days after infestation.

In data set [4] the test system is Plutella xylostella (Diamond Back Moth). Put plainly: Example B3: Activity against Plutella xylostella (diamond back moth), artificial diet. Format: in vivo. As to conditions: 192 h, application rate 200 ppm, eggs on artificial diet, 8 days after infestation, read-out: effect in at least one of the two categories (mortality or growth inhibition).
Data set [5] has as its system Myzus persicae (Green Peach Aphid). The data set is described as follows: whole plant or invertebrate. The class given is in vivo. As to conditions: foliar, 144 h, application rate 200 ppm, sprayed sunflower leaf discs, mixed ages, 6 days after infestation. The method, then: Example B4: Activity Against Myzus persicae (Green Peach Aphid) Feeding/Contact Activity
Sunflower leaf discs were placed onto agar in a 24-well microtiter plate and sprayed with aqueous test solutions prepared from 10′000 ppm DMSO stock solutions. After drying, the leaf discs were infested with an aphid population of mixed ages. The samples were assessed for mortality 6 days after infestation.

The test system is the same in data set [6]. Put plainly: Example B5: Activity against Myzus persicae (green peach aphid), systemic activity. The class given is in vivo. The note with it: 144 h, test rate 24 ppm, roots of pea seedlings in test solution, mixed ages, 6 days. Here is the method: Example B5: Activity Against Myzus persicae (Green Peach Aphid) Systemic Activity
Roots of pea seedlings infested with an aphid population of mixed ages were placed directly into aqueous test solutions prepared from 10′000 DMSO stock solutions. The samples were assessed for mortality 6 days after placing seedlings into test solutions.

The subject of data set [7] is Spodoptera littoralis (Egyptian Cotton Leaf Worm). The data set is described as follows: Example B6: Activity against Spodoptera littoralis (Egyptian cotton leaf worm). The class given is in vivo. As to conditions: foliar, 72 h, application rate 200 ppm, L1 larvae on sprayed cotton leaf discs, 3 days after infestation, read-out: control (mortality, anti-feeding effect or growth inhibition). The gist of the method:
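Cotton leaf discs on agar were sprayed with aqueous test solutions prepared from 10'000 ppm DMSO stocks. After drying, each disc was infested with five L1 larvae. Mortality, anti-feeding and growth inhibition were scored against untreated samples 3 days after infestation.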

Data set [8] relates to Bemisia tabaci (Cotton White Fly). The data set is described as follows: Example B7: Activity against Bemisia tabaci (cotton white fly). Format: in vivo. As to conditions: foliar, 144 h, application rate 200 ppm, adult white flies on sprayed cotton leaf discs, 6 days after incubation. Here is the method:
Example B7: Activity Against Bemisia tabaci (Cotton White Fly)
Cotton leaf discs were placed on agar in 24-well microtiter plates and sprayed with aqueous test solutions prepared from 10′000 ppm DMSO stock solutions. After drying the leaf discs were infested with adult white flies. The samples were checked for mortality 6 days after incubation.

In data set [9] the test system is Frankliniella occidentalis (Western Flower Thrips). The data set is described as follows: Example B8: Activity against Frankliniella occidentalis (western flower thrips). As to conditions: foliar, 168 h, application rate 200 ppm, sprayed sunflower leaf discs, mixed ages, 7 days after infestation. The class given is in vivo. Here is the method:
Example B8: Activity Against Frankliniella occidentalis (Western Flower Thrips)
Sunflower leaf discs were placed on agar in 24-well microtiter plates and sprayed with aqueous test solutions prepared from […] stock solutions. After drying the leaf discs were infested with a Frankliniella population of mixed ages. The samples were assessed for mortality 7 days after infestation.

The record followed here is patent US20220132852A1, “PESTICIDALLY ACTIVE HETEROCYCLIC DERIVATIVES WITH SULFUR CONTAINING SUBSTITUENTS” (SYNGENTA CROP PROTECTION AG, priority 2019, published 2022).

Like-named read-outs stand apart in the source and are kept apart here. Some results are limits rather than exact numbers.

The term mortality denotes the share of the test organisms that died. On to `CCSc1cc(C(C)(C)C#N)c[n+]([O-])c1-c1cc2ccn(CC(F)(F)C(F)(F)F)c2cn1` [PN6, 2-[5-ethylsulfanyl-1-oxido-6-[1-(2,2,3,3,3-pentafluoropropyl)pyrrolo[2,3-c]pyridin-5-yl]pyridin-1-ium-3-yl]-2-methyl-propanenitrile], for which the mortality at 200 ppm in data set [1] (application rate 200 ppm, sprayed bean leaf discs, 8 days after infestation) was not below 80%.
For `CCS(=O)(=O)c1cc(C(C)(C)C#N)cnc1-c1cc2cnn(CC(F)(F)C(F)(F)F)c2cn1` [Compound P5, 2-[5-ethylsulfonyl-6-[1-(2,2,3,3,3-pentafluoropropyl)pyrazolo[3,4-c]pyridin-5-yl]-3-pyridyl]-2-methyl-propanenitrile], the percent effect (mortality or growth inhibition) at 200 ppm in data set [2], in data set [3] and in [4] was not below 80% in each case. Besides, the mortality at 200 ppm in data set [5] and in data set [8] was not below 80% each time. The mortality at 24 ppm in data set [6] was not below 80%. In addition, the percent control (mortality, anti-feedant effect or growth inhibition) at 200 ppm in data set [7] was not below 80%.
For `CCSc1cc(C(C)(C)C#N)cnc1-c1cc2cnn(CC(F)(F)C(F)(F)F)c2cn1` [Compound P6, 2-[5-ethylsulfanyl-6-[1-(2,2,3,3,3-pentafluoropropyl)pyrazolo[3,4-c]pyridin-5-yl]-3-pyridyl]-2-methyl-propanenitrile], the percent effect (mortality or growth inhibition) at 200 ppm in data set [2], in data set [3] and in data set [4] was not below 80% in each case. The mortality at 200 ppm in data set [5], in data set [8] and in data set [9] was not below 80% throughout. Also, in [7], the percent control (mortality, anti-feedant effect or growth inhibition) at 200 ppm is not below 80%.
By melting point is commonly meant the temperature of the solid-liquid transition. `CCSc1ccc[n+]([O-])c1-c1cc2ccn(CC(F)(F)C(F)(F)F)c2cn1` [PN2, 5-(3-ethylsulfanyl-1-oxido-pyridin-1-ium-2-yl)-1-(2,2,3,3,3-pentafluoropropyl) pyrrolo[2,3-c]pyridine] displayed a melting point of 181 to 185 °C.
`CCS(=O)(=O)c1ccc(C2CC2)nc1-c1cc2cnn(CC(F)(F)C(F)(F)F)c2cn1` [Compound P26, 5-(6-cyclopropyl-3-ethylsulfonyl-2-pyridyl)-1-(2,2,3,3,3,- pentafluoropropyl) pyrazolo[3,4-c]pyridine]: the percent effect (mortality or growth inhibition) at 200 ppm in data set [2], in [3] and in data set [4] was not below 80% each time. For the same molecule, the mortality at 200 ppm in data set [5], in data set [9] and in [1] was not below 80% each time. In addition, the percent control (mortality, anti-feedant effect or growth inhibition) at 200 ppm in data set [7] was not below 80%.
As for `CCS(=O)(=O)c1cc(C2(C#N)CC2)cnc1-c1cc2cnn(CC(F)(F)C(F)(F)F)c2cn1` [Compound P11, 1-[5-ethylsulfonyl-6-[1-(2,2,3,3,3-pentafluoropropyl)pyrazolo[3,4-c]pyridin-5-yl]-3-pyridyl]cyclopropanecarbonitrile], the percent effect (mortality or growth inhibition) at 200 ppm in data set [2], in [3] and in data set [4] was not below 80% throughout. Moreover, the mortality at 200 ppm in [5], in data set [8] and in data set [9] was not below 80% each time. Moreover, the percent control (mortality, anti-feedant effect or growth inhibition) at 200 ppm in [7] was not below 80%.
Take `CCS(=O)(=O)c1ccc(N(C)C(=O)NC)nc1-c1cc2ccn(CC(F)(F)C(F)(F)F)c2cn1` [Compound P13, 1-[5-ethylsulfonyl-6-[1-(2,2,3,3,3-pentafluoropropyl)pyrrolo[2,3-c]pyridin-5-yl]-2-pyridyl]-1,3-dimethyl-urea]: the melting point lay within 214 to 217 °C.
The same measure, in the same setting: the same measure for `CCSc1ccc(Cl)nc1-c1cc2ccn(CC(F)(F)C(F)(F)F)c2cn1` [Compound P48, 5-(6-chloro-3-ethylsulfanyl-2-pyridyl)-1-(2,2,3,3,3-pentafluoropropyl) pyrrolo[2,3-c]pyridine]: 185 to 188 °C.
